Reference: article PMC10762035, “Molecular basis of human trace amine-associated receptor 1 activation” (Nature Communications, 2024)
Where a chain is given by its changes, count along the chain named. Values joined by “and” are separate entries in the source; they are usually repeats but may differ in a detail not shown here. Equal entries are not always repeated.

Experiments:
Format in all cases: cell-based
hTA1 C88S = target: T1, hTA1 C88S (Homo sapiens, UniProt Q96RJ0, C88S); assay: GloSensor cAMP accumulation assay, C88S mutant; details: C88S
T1 construct: expressed in transfected cells; host or cells: HEK293T
T1 sequence (Q96RJ0 1-339 C88S): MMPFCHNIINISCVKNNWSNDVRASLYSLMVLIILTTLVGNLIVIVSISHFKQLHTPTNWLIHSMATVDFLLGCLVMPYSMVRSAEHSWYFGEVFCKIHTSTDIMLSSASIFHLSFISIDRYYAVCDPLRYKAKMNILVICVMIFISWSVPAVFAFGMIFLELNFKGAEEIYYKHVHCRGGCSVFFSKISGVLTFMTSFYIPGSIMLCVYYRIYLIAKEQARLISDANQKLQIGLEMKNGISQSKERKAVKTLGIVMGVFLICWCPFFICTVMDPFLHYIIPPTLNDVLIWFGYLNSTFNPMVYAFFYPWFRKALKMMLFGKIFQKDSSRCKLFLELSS

hTA1 V184P = target: T2, hTA1 V184P (Homo sapiens, UniProt Q96RJ0, V184P); assay: GloSensor cAMP accumulation assay, V184P mutant; details: for cAMP accumulation response, single replicate values (source data, Supplementary Figure 5): hTA1 V184P (N=2), log[Compound]
T2 construct: expressed in transfected cells; host or cells: HEK293T
T2 sequence (Q96RJ0 1-339 V184P): T1 sequence (Q96RJ0 1-339 C88S) with S88C, V184P

hTA1 S107C = target: T3, hTA1 S107C (Homo sapiens, UniProt Q96RJ0, S107C); assay: GloSensor cAMP accumulation assay, S107C mutant;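 also: cells transiently co-expressing receptor and GloSensor biosensor, luminescence read after 30 min agonist exposure at room temperature, concentration-response fitted by nonlinear regression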
T3 construct: expressed in transfected cells; host or cells: HEK293T
T3 sequence (Q96RJ0 1-339 S107C): T1 sequence (Q96RJ0 1-339 C88S) with S88C, S107C

hTA1 b2N = target: T4, hTA1 b2N (Homo sapiens, UniProt Q96RJ0); assay: GloSensor cAMP accumulation assay, b2N construct; details: b2N, n=2
T4 construct: read by me as the first 25 residues of β2AR (N); expressed in transfected cells; host or cells: HEK293T

hTA1 = target: T5, hTA1 (Homo sapiens, UniProt Q96RJ0); assay: GloSensor cAMP accumulation assay, concentration response, wild-type hTA1 in transfected HEK293T cells; details: for Dose-response curves for asenapine vs endogenous trace amines: log[Compound], replicate values (N=2);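 as to all read-outs here: luminescence read after 30 min compound exposure at room temperature in cells preloaded with D-Luciferin, reflecting Gs-driven cAMP rise, efficacy scaled to the maximal β-PEA response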
T5 construct: expressed in transfected cells; host or cells: HEK293T
T5 sequence (Q96RJ0 1-339): T1 sequence (Q96RJ0 1-339 C88S) with S88C

T4 sequence (Q96RJ0 with tags, fused parts or gaps): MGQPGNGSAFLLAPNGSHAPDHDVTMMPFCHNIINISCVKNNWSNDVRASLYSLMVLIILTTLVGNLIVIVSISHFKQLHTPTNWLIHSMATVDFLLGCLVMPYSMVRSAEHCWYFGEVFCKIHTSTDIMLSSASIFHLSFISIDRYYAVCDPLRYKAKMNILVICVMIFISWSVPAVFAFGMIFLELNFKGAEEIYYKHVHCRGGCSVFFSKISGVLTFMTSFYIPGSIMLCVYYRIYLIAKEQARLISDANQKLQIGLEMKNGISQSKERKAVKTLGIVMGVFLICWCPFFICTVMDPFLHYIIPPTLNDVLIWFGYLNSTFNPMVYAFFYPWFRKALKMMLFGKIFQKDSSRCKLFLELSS

## NCCc1ccc(Oc2ccc(O)cc2)c(I)c1 [T1AM, 3-iodothyronamine]
hTA1 C88S; Mean of fit per experiment
  Emax values: 51.5909 and 77.2309
  pEC50 values: 6.196 and 6.127
hTA1 C88S; n=2
  Span ± SEM (Emax normalized to β-PEA): 64.41
  pEC50 ± SEM: 6.16 ± 0.04
hTA1 C88S; n=2, read-out: EC50
  EC50: 0.69 µM
hTA1 V184P; V184P, n=2
  Span ± SEM (Emax normalized to β-PEA): 70.26
  pEC50 ± SEM: 6.27 ± 0.05
hTA1 V184P; V184P, n=2, read-out: EC50
  EC50: 0.539 µM
hTA1 V184P; M = -5
  cAMP accumulation response, single replicate values (source data, Supplementary Figure 5): 47.1774 and 43.1039 and 48.2443 and 102.347 and 62.5054 and 96.189
hTA1 V184P; M = -5.522
  cAMP accumulation response, single replicate values (source data, Supplementary Figure 5): 32.0474 and 39.1275 and 36.5088 and 86.7693 and 72.5115 and 76.5066
hTA1 V184P; M = -6
  cAMP accumulation response, single replicate values (source data, Supplementary Figure 5): 40.0973 and 27.683 and 25.5492 and 73.6844 and 54.6984 and 67.6001
hTA1 V184P; M = -6.522
  cAMP accumulation response, single replicate values (source data, Supplementary Figure 5): 14.9776 and 12.068 and 13.8138 and 37.1052 and 29.2983 and 35.6391
hTA1 V184P; M = -7
  cAMP accumulation response, single replicate values (source data, Supplementary Figure 5): 5.085 and 5.182 and 3.9211 and 15.2237 and 21.0881 and 16.0667
hTA1 V184P; M = -7.522
  cAMP accumulation response, single replicate values (source data, Supplementary Figure 5): -0.4433 and -1.4132 and 0.1386 and 3.678 and 3.238 and 3.861
hTA1 V184P; M = -8
  cAMP accumulation response, single replicate values (source data, Supplementary Figure 5): -0.9283 (2×) and -1.51 and 5.3642 and 2.908 and 3.861
hTA1 V184P; M = -8.522
  cAMP accumulation response, single replicate values (source data, Supplementary Figure 5): -1.316 and -1.607 and -1.51 and 1.809 and 2.2854 and 1.442
hTA1 V184P; M = -9
  cAMP accumulation response, single replicate values (source data, Supplementary Figure 5): -1.704 (2×) and -1.801 and 1.442 and -0.5735 and 0.4894
hTA1 V184P; M = -9.522
  cAMP accumulation response, single replicate values (source data, Supplementary Figure 5): -1.4132 and -1.801 and -1.607 and 0.3795 and -0.4269 and 0.5994
hTA1 V184P; M = -10
  cAMP accumulation response, single replicate values (source data, Supplementary Figure 5): -1.51 and -1.801 (2×) and 1.149 and -0.207 and 0.01294
hTA1 V184P; M = -10.522
  cAMP accumulation response, single replicate values (source data, Supplementary Figure 5): -1.316 and -1.607 (2×) and -0.2803 and 0.08625 and -1.233
hTA1 V184P; M = -11
  cAMP accumulation response, single replicate values (source data, Supplementary Figure 5): -1.801 and -1.122 and -1.4132 and 0.746 and 0.7093 and 0.1596
hTA1 V184P; M = -11.522
  cAMP accumulation response, single replicate values (source data, Supplementary Figure 5): -1.316 and -1.025 and -1.4132 and 0.636 and 1.039 and -0.3169
hTA1 V184P; M = -12
  cAMP accumulation response, single replicate values (source data, Supplementary Figure 5): -1.801 and -1.122 and -1.219 and -0.4635 and 0.9659 and -0.1337
hTA1 V184P; M = -12.522
  cAMP accumulation response, single replicate values (source data, Supplementary Figure 5): -1.219 and -0.7343 and -1.607 and 0.0496 and -0.3536 and -0.6468
hTA1 V184P; hTA1 V184P mutant minus WT average
  ΔpEC50 values (each mutant value - WT average), Mean: 0.071 and 0.2071
hTA1 V184P; hTA1 V184P mutant, Figure 3B source data, each grid row a separate experiment, 3 replicates
  pEC50 values, Mean: 6.2 and 6.336
hTA1 V184P; hTA1 V184P mutant, β-PEA set to 100, each grid row a separate experiment, 3 replicates
  Emax values, Mean: 49.3182 and 91.2084
hTA1 S107C; S107C mutant minus WT average
  ΔEmax values (each mutant value - WT average): 9.303
hTA1 S107C; S107C mutant, β-PEA = 100, each line an independent experiment, 3 replicates
  Emax values, Mean: 79.7491 and 64.3505
hTA1 S107C; S107C, n=2
  Span ± SEM (Emax normalized to β-PEA): 72.05 ± 7.70
  pEC50 ± SEM: 5.87 ± 0.53
hTA1 S107C; S107C, n=2, read-out: EC50
  EC50: 1.35 µM
hTA1 b2N
  Span ± SEM (Emax normalized to β-PEA): 80.48
  pEC50 ± SEM: 6.65 ± 0.05
hTA1 b2N; read-out: EC50
  EC50: 0.224 µM
hTA1; WT hTA1, average of the two experiments, Figure 2B source data
  pEC50 values, Avg: 6.129
hTA1; WT hTA1, each line an independent experiment, 3 replicates, Figure 2B source data
  pEC50 values, Mean: 6.182 and 6.077
hTA1; WT hTA1, β-PEA = 100, average of the two experiments
  Emax values, Avg: 70.45
hTA1; WT hTA1, β-PEA = 100, each line an independent experiment, 3 replicates
  Emax values, Mean: 81.6192 and 59.2734
hTA1; WT, average of the experiments, β-PEA = 100
  Emax values, Avg: 70.45
hTA1; WT, average of the two experiments
  Emax values, Avg: 70.45
hTA1; WT, mean of each independent experiment (3 replicates), β-PEA = 100
  Emax values, Mean: 81.6192 and 59.2734
hTA1; WT, single experiments (3 replicates each), β-PEA = 100
  Emax values, Mean: 81.6192 and 59.2734
hTA1; M = -5
  Dose-response curves for asenapine vs endogenous trace amines: 80.3892 and 70.8419 and 77.0287 and 53.9778 and 58.2977 and 47.0284
hTA1; M = -5.522
  Dose-response curves for asenapine vs endogenous trace amines: 67.6372 and 58.4905 and 72.8448 and 53.4613 and 47.5449 and 34.1625
hTA1; M = -6
  Dose-response curves for asenapine vs endogenous trace amines: 47.6524 and 43.0457 and 45.9165 and 36.4633 and 32.8477 and 25.2879
hTA1; M = -6.522
  Dose-response curves for asenapine vs endogenous trace amines: 27.5341 and 25.2641 and 26.1988 and 18.1976 and 14.2064 and 10.9195
hTA1; M = -7
  Dose-response curves for asenapine vs endogenous trace amines: 12.6456 and 9.641 and 11.7554 and 4.346 and 3.125 and 2.796
hTA1; M = -7.522
  Dose-response curves for asenapine vs endogenous trace amines: 2.609 and 0.272 and 1.897 and 0.1666 and -0.02121 and -0.8664
hTA1; M = -8
  Dose-response curves for asenapine vs endogenous trace amines: 1.34 and 0.4055 and 0.9619 and 0.2136 and -0.06817 and -0.9603
hTA1; M = -8.522
  Dose-response curves for asenapine vs endogenous trace amines: -0.9075 and -0.6182 and -0.5737 and -1.007 and 0.1197 and -2.04
hTA1; M = -9
  Dose-response curves for asenapine vs endogenous trace amines: -0.9521 and -0.863 and -1.419 and -0.8664 and -0.8195 and -1.618
hTA1; M = -9.522
  Dose-response curves for asenapine vs endogenous trace amines: -1.019 and -2.087 and -1.442 and -1.383 and -0.8195 and -2.228
hTA1; M = -10
  Dose-response curves for asenapine vs endogenous trace amines: -0.863 (2×) and -1.286 and -1.477 and -1.054 and -1.571
hTA1; M = -10.522
  Dose-response curves for asenapine vs endogenous trace amines: -1.531 and -2.287 and -1.464 and -1.571 and -1.336 and -1.618
hTA1; M = -11
  Dose-response curves for asenapine vs endogenous trace amines: -0.1731 and -0.9075 and -0.3734 and -0.5847 and 0.1197 and -1.054
hTA1; M = -11.522
  Dose-response curves for asenapine vs endogenous trace amines: -0.507 and -1.152 and -1.197 and -0.209 and -0.1151 and -1.054
hTA1; M = -12
  Dose-response curves for asenapine vs endogenous trace amines: -0.774 and -1.419 and -1.8645 and -1.336 (2×) and -1.571
hTA1; M = -12.522
  Dose-response curves for asenapine vs endogenous trace amines: -1.019 and -1.798 (2×) and -0.7255 and -1.43 and -2.087
hTA1; wt hTA1, HEK293T, n=3
  pEC50 ± SEM: 6.13 ± 0.04
hTA1; wt hTA1, HEK293T, n=3, read-out: EC50
  EC50: 0.743 µM
hTA1; wt hTA1, relative to β-PEA
  Emax: 70.5%
